Source: PMC7913927, “Leishmanicidal Activity of Betulin Derivatives in Leishmania amazonensis; Effect on Plasma and Mitochondrial Membrane Potential, and Macrophage Nitric Oxide and Superoxide Production” (Microorganisms, 2021)
Where “and” joins values, the source holds several entries; their conditions need not be identical. Equal values may be shown once. Read-outs that look alike come from different tables or passages of the source.

Tests used:
J774.1 macrophages = assay: Cytotoxicity (Alamar Blue) in macrophages; type: cell-based, murine; conditions: 72 h
Description: In flat-bottom 96-well culture plates, J774.1 macrophages were seeded at a cell density of 5 × 10^4 mL^−1 (10,000 macrophages/well) in 200 µL of RPMIc. After 24 h at 37 °C, 5% CO2, medium was replaced by 180 µL of RPMIc, without phenol red, and increasing concentrations of test compounds in 2-µL volumes. […] At least two independent experiments were performed in duplicate. Based on the inhibition of cell growth caused by the tested compounds, the percentage of growth inhibition compared to untreated cells was calculated. […] Selectivity indices (SI) were calculated, dividing the macrophage CC50 by the parasites GI50 (SI = CC50/GI50).

[1] = test system: VE98MR intracellular amastigotes in J774.1 macrophages; assay: Macrophage-amastigote model, patient isolate VE98MR; type: cell-based, Leishmania amazonensis; conditions: for Regresion (GraphPad 6) of %Control vs dose (50% inhibitory concentration) / Growth (%) Exp1 %Control / Growth (%) Exp1 A/100MØ / Growth (%) Exp1 A/MØ / Growth (%) Exp1 Infección / Growth (%) Exp2 %Control / Growth (%) Exp2 A/100MØ / Growth (%) Exp2 A/MØ / Growth (%) Exp2 Infección / Growth (%) Exp3 %Control / Growth (%) Exp3 A/100MØ / Growth (%) Exp3 A/MØ / Growth (%) Exp3 Infección / Average A/100MØ: VE98MR; for Regresion (GraphPad 6) of %Control vs dose (50% inhibitory concentration): unit from Dose head; for Average A/100MØ: average of Exp1-3
Description: We used a previously described methodology, with some modifications. Macrophage monolayers, grown in RMPIc medium, for 3 days, were detached from the bottom of the culture chamber, by physical treatment (low temperature and light strokes). Obtained macrophages were seeded in flat-bottom 96-well culture plates, at a density of 2 × 10^5 cells mL^−1 (40,000 macrophages/well), in a final volume of 200 µL. Plates were incubated for 2 h, and the supernatant was discarded to remove non-adhered macrophages. Medium was replaced with stationary-phase promastigotes suspended in 200 µL of RPMIc (2 × 10^6 parasites mL^−1, 400,000 parasites/well), at a macrophage: parasite ratio 1:10 [40]. The plates were incubated for 4 h. Afterwards the medium was replaced with fresh RPMIc and increasing concentrations of compounds or drugs tested were applied, in volumes of 2 µL, according to the different treatment groups. Plates were kept for 72 h, at 37 °C and 5% CO2. The medium was discarded and the wells were washed twice with PBS. Next, a Giemsa staining was performed in situ. It consisted of adding 200 µL of methanol/well, incubating for 5 min, discarding the fixative, and letting it dry at room temperature. Later, the Giemsa solution (10% in PBS w/v, 200 µL/well) was added, incubated for 10 min, and washed with PBS, allowing it to dry. Finally, the bottom of the plates was detached by percussion and the circular bottoms (wells) were fixed to slides with Permount synthetic resin, for later evaluation (Alcazar W., manuscript in preparation). Cell counting was performed with a 100× immersion objective. A minimum of 200 random macrophages were examined. The percentage of infected macrophages (% infection) and the average number of amastigotes present in infected macrophages (amastigotes) were determined. […] The infection rate represents the number of intracellular amastigotes per 100 macrophages evaluated. Additionally, the GI50 for the decrease in the infection rate was calculated. At least three independent experiments were performed. The effect of amphotericin-B (AmB) [Sigma-Aldrich, (St. Louis, MO, USA)] was included as positive control of the assay.

C=C(C)C1CCC2(C=NO)CCC3(C)C(CCC4C5(C)CCC(=NO)C(C)(C)C5CCC43C)C12 (centres unmarked) [Compound 18]
CC50 (J774.1 macrophages): 48.1 µM
SI (CC50/GI50) VE98MR ([1]; J774.1 CC50 / intracellular amastigote GI50, Table 2): 27.32
GI50 ([1]; VE98MR intracellular amastigotes, read-out: GI50 (µM) Experiment 1 Regresion): 0.65 µM
GI50 ([1]; VE98MR intracellular amastigotes, read-out: GI50 (µM) Experiment 2 Regresion): 1.09 µM
GI50 ([1]; VE98MR intracellular amastigotes, read-out: GI50 (µM) Experiment 3 Regresion): 0.89 µM
Regresion (GraphPad 6) of %Control vs dose (50% inhibitory concentration) ([1]; Exp1): 0.65 µM
Regresion (GraphPad 6) of %Control vs dose (50% inhibitory concentration) ([1]; Exp2): 1.09 µM
Regresion (GraphPad 6) of %Control vs dose (50% inhibitory concentration) ([1]; Exp3): 0.89 µM
Growth (%) Exp1 %Control ([1]; dose 0.10 µM, Exp1): 72.90%
Growth (%) Exp1 A/100MØ ([1]; dose 0.10 µM, Exp1): 117.33
Growth (%) Exp1 A/MØ ([1]; dose 0.10 µM, Exp1): 2.20
Growth (%) Exp1 Infección ([1]; dose 0.10 µM, Exp1): 53.33%
Growth (%) Exp2 %Control ([1]; dose 0.10 µM, Exp2): 77.33%
Growth (%) Exp2 A/100MØ ([1]; dose 0.10 µM, Exp2): 159.61
Growth (%) Exp2 A/MØ ([1]; dose 0.10 µM, Exp2): 2.67
Growth (%) Exp2 Infección ([1]; dose 0.10 µM, Exp2): 59.78%
Growth (%) Exp3 %Control ([1]; dose 0.10 µM, Exp3): 82.84%
Growth (%) Exp3 A/100MØ ([1]; dose 0.10 µM, Exp3): 205.27
Growth (%) Exp3 A/MØ ([1]; dose 0.10 µM, Exp3): 3.68
Growth (%) Exp3 Infección ([1]; dose 0.10 µM, Exp3): 55.78%
Average A/100MØ ([1]; dose 0.10 µM): 160.74
Growth (%) Exp1 %Control ([1]; dose 0.50 µM, Exp1): 57.32%
Growth (%) Exp1 A/100MØ ([1]; dose 0.50 µM, Exp1): 92.25
Growth (%) Exp1 A/MØ ([1]; dose 0.50 µM, Exp1): 2.05
Growth (%) Exp1 Infección ([1]; dose 0.50 µM, Exp1): 45.00%
Growth (%) Exp2 %Control ([1]; dose 0.50 µM, Exp2): 61.05%
Growth (%) Exp2 A/100MØ ([1]; dose 0.50 µM, Exp2): 125.99
Growth (%) Exp2 A/MØ ([1]; dose 0.50 µM, Exp2): 2.20
Growth (%) Exp2 Infección ([1]; dose 0.50 µM, Exp2): 57.27%
Growth (%) Exp3 %Control ([1]; dose 0.50 µM, Exp3): 73.43%
Growth (%) Exp3 A/100MØ ([1]; dose 0.50 µM, Exp3): 181.96
Growth (%) Exp3 A/MØ ([1]; dose 0.50 µM, Exp3): 3.24
Growth (%) Exp3 Infección ([1]; dose 0.50 µM, Exp3): 56.16%
Average A/100MØ ([1]; dose 0.50 µM): 133.40
Growth (%) Exp1 %Control ([1]; dose 1.00 µM, Exp1): 48.73%
Growth (%) Exp1 A/100MØ ([1]; dose 1.00 µM, Exp1): 78.42
Growth (%) Exp1 A/MØ ([1]; dose 1.00 µM, Exp1): 2.26
Growth (%) Exp1 Infección ([1]; dose 1.00 µM, Exp1): 34.70%
Growth (%) Exp2 %Control ([1]; dose 1.00 µM, Exp2): 59.91%
Growth (%) Exp2 A/100MØ ([1]; dose 1.00 µM, Exp2): 123.65
Growth (%) Exp2 A/MØ ([1]; dose 1.00 µM, Exp2): 2.80
Growth (%) Exp2 Infección ([1]; dose 1.00 µM, Exp2): 44.16%
Growth (%) Exp3 %Control ([1]; dose 1.00 µM, Exp3): 42.96%
Growth (%) Exp3 A/100MØ ([1]; dose 1.00 µM, Exp3): 106.46
Growth (%) Exp3 A/MØ ([1]; dose 1.00 µM, Exp3): 2.36
Growth (%) Exp3 Infección ([1]; dose 1.00 µM, Exp3): 45.11%
Average A/100MØ ([1]; dose 1.00 µM): 102.84
Growth (%) Exp1 %Control ([1]; dose 5.00 µM, Exp1): 16.08%
Growth (%) Exp1 A/100MØ ([1]; dose 5.00 µM, Exp1): 25.87
Growth (%) Exp1 A/MØ ([1]; dose 5.00 µM, Exp1): 1.60
Growth (%) Exp1 Infección ([1]; dose 5.00 µM, Exp1): 16.17%
Growth (%) Exp2 %Control ([1]; dose 5.00 µM, Exp2): 28.34%
Growth (%) Exp2 A/100MØ ([1]; dose 5.00 µM, Exp2): 58.49
Growth (%) Exp2 A/MØ ([1]; dose 5.00 µM, Exp2): 2.35
Growth (%) Exp2 Infección ([1]; dose 5.00 µM, Exp2): 24.89%
Growth (%) Exp3 %Control ([1]; dose 5.00 µM, Exp3): 8.53%
Growth (%) Exp3 A/100MØ ([1]; dose 5.00 µM, Exp3): 21.14
Growth (%) Exp3 A/MØ ([1]; dose 5.00 µM, Exp3): 1.13
Growth (%) Exp3 Infección ([1]; dose 5.00 µM, Exp3): 18.71%
Average A/100MØ ([1]; dose 5.00 µM): 35.17
Growth (%) Exp1 %Control ([1]; dose 10.00 µM, Exp1): 3.99%
Growth (%) Exp1 A/100MØ ([1]; dose 10.00 µM, Exp1): 6.42
Growth (%) Exp1 A/MØ ([1]; dose 10.00 µM, Exp1): 1.33
Growth (%) Exp1 Infección ([1]; dose 10.00 µM, Exp1): 4.83%
Growth (%) Exp2 %Control ([1]; dose 10.00 µM, Exp2): 9.85%
Growth (%) Exp2 A/100MØ ([1]; dose 10.00 µM, Exp2): 20.33
Growth (%) Exp2 A/MØ ([1]; dose 10.00 µM, Exp2): 1.50
Growth (%) Exp2 Infección ([1]; dose 10.00 µM, Exp2): 13.55%
Growth (%) Exp3 %Control ([1]; dose 10.00 µM, Exp3): 11.25%
Growth (%) Exp3 A/100MØ ([1]; dose 10.00 µM, Exp3): 27.88
Growth (%) Exp3 A/MØ ([1]; dose 10.00 µM, Exp3): 1.35
Growth (%) Exp3 Infección ([1]; dose 10.00 µM, Exp3): 20.65%
Average A/100MØ ([1]; dose 10.00 µM): 18.21
GI50 ([1]; intracellular amastigotes, Supplementary Materials II, read-out: GI50 (µM) VE98MR, mean of three experiments): 0.877 µM and 0.88 µM
